Source: PubChem BioAssay AID1963829 (Molecular Pharmacology Branch, DTP, NCI, 2024)
“And” between values parts separate entries of the source, which are not always exact repeats. Equal entries are not always repeated.

System: 935938-334-R-J1-PDC complex spheroid viability
Test: Anticancer human tumor 935938-334-R-J1-PDC patient-derived small intestine adenocarcinoma cell line growth inhibition [POLQ]
Details: for viability, T/C: stronger effect = lower value; active = viability on the fitted dose curve at most 10% of control; inactive = the rest
Description: Multicellular complex tumor spheroid response to Polymerase (POL) inhibitors (novobiocin, ART-558, RP6685) in combination with a variety of drugs and investigational agents in selected tumor cell lines
The POL inhibitors (novobiocin, ART-558, and RP6685) were evaluated both individually and in combination with standard of care and investigational anticancer small molecules within a complex spheroid model of solid tumors. . Complex spheroids include a stromal component modeled by human endothelial cells (HUVEC) and fibroblasts modeled by human mesenchymal stem cells (MSCs). The concentration ranges selected for each drug and investigational agent were based upon clinically achievable concentrations if the clinical Cmax of the agent was known.
Compounds. The drugs and investigational agents: novobiocin (NSC847541), ART-558 (NSC835418), RP-6685 (NSC848927), peposertib (NSC802822), ceralasertib (NSC780249), elimusertib (NSC800525), camonsertib (NSC841442), AZD-1390 (NSC803789), olaparib (NSC753686), talazoparib (NSC767125), rucaparib (NSC756644), sotorasib (NSC818433), MRTX-1133 (NSC836407), SN-38 (NSC673596), topotecan (NSC609699), epotoside (NSC141540), doxorubicin (NSC123127), gemcitabine (NSC613327), 5-fluorouracil (NSC19893), paclitaxel (NSC125973), vemurafenib (NSC761431), MSA-2 (NSC828583), SN-011 (NSC837082), adavosertib (NSC754352), prexasertib (NSC758257), carboplatin (NSC241240) and oxaliplatin (NSC266046), were obtained from the National Cancer Institute (NCI) Developmental Therapeutics Program Chemical Repository (21). The FDA-approved anticancer drug set is available from the Developmental Therapeutics Program at https://dtp.cancer.gov/organization/dscb/obtaining/. […] The stock solutions were prepared in dimethyl sulfoxide (DMSO, Sigma-Aldrich, St. Louis, MO, cat. D2650), except for the platinum compounds which were prepared in saline (Quality Biological, Gaithersburg, MD, cat. 114-055-101), at 800-fold the tested concentration and stored at -70 degrees C prior to their use. All drugs and investigational agents were tested over a range starting from a high concentration at or near the clinical Cmax and decreasing in half-log increments. If the clinical Cmax for an agent had not been determined, the highest concentration tested was 10 microM, except for SN-38, which was tested at a high concentration of 1 microM.
Cell Culture. All cells were maintained in an incubator at 37 degrees C and 5% CO2 with 95% humidity. The PDC lines were cultured according to standard operating procedures established by the NCI PDMR (https://pdmr.cancer.gov). Table 3 of the manuscript, lists the cell lines along with the number of the three cell types plated to form the mct-spheroids and media for tumor cell growth. After thawing, all PDC lines, except 997537-175-T-J1-PDC and 415267-285-R-J2-PDC, were cultured in Matrigel-coated flasks prepared with a working solution of 1X Ham's F-12 nutrient mix, without supplementation (Thermo Fisher Scientific, cat. 11765054), 100 U/mL penicillin-streptomycin (Thermo Fisher Scientific, cat. 15140122), and 2.5% Matrigel (Corning Inc., Corning, NY, cat. 354248) for the first three passages. The two PDC lines 997537-175-T-J1-PDC and 415267-285-R-J2-PDC were cultured on uncoated flasks. The 857933-349-R-J2-PDC line was cultured in 6C/Colon 1B media containing advanced DMEM/F-12 (Thermo Fisher Scientific, cat. 12634028), 10 mM HEPES (Thermo Fisher Scientific, cat. 15630080), 1X GlutaMAX supplement (Thermo Fisher Scientific, cat. 35050061), 0.1 mg/mL primocin (InvivoGen, San Diego, CA, cat. ant-pm-2), 10% defined fetal bovine serum, heat inactivated (HyClone Laboratories Inc., Logan, UT, cat. SH30070.03HI), 50% L-WRN conditioned media (ATCC, cat. CRL-3276), 1.25 mM N-Acetyl-L-cysteine (Sigma-Aldrich, cat. A9165), 10 mM nicotinamide (Sigma-Aldrich, cat. N0636), 1X B-27 supplement (Thermo Fisher Scientific, cat. 17504044), 1X N-2 supplement (Thermo Fisher Scientific, cat. […]
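Also: spheroids exposed to drugs for seven days before viability read.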
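For viability, T/C in this document: 100% = DMSO vehicle control wells.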

CC[C@@]1(O)C(=O)OCc2c1cc1n(c2=O)Cc2cc3c(CN(C)C)c(O)ccc3nc2-1 + Cc1cccc(N(C)C(=O)C2C(O)CCN2c2nc(C)cc(C(F)(F)F)c2C#N)c1
inactive: viability, T/C (second compound 0.0316 µM, first compound 0.000316 µM) 123% | viability, T/C (second compound 0.0316 µM, first compound 0.001 µM) 111% | viability, T/C (second compound 0.0316 µM, first compound 0.00316 µM) 95.1% | viability, T/C (second compound 0.0316 µM, first compound 0.01 µM) 90.4% | viability, T/C (second compound 0.0316 µM, first compound 0.0316 µM) 70.6% | viability, T/C (second compound 0.0316 µM, first compound 0.1 µM) 69.2% | viability, T/C (second compound 0.1 µM, first compound 0.000316 µM) 105% | viability, T/C (second compound 0.1 µM, first compound 0.001 µM) 113% | viability, T/C (second compound 0.1 µM, first compound 0.00316 µM) 109% | viability, T/C (second compound 0.1 µM, first compound 0.01 µM) 128% | viability, T/C (second compound 0.1 µM, first compound 0.0316 µM) 68.5% | viability, T/C (second compound 0.1 µM, first compound 0.1 µM) 82.7% | viability, T/C (second compound 0.316 µM, first compound 0.000316 µM) 112% | viability, T/C (second compound 0.316 µM, first compound 0.001 µM) 102% | viability, T/C (second compound 0.316 µM, first compound 0.00316 µM) 118% | viability, T/C (second compound 0.316 µM, first compound 0.01 µM) 88% | viability, T/C (second compound 0.316 µM, first compound 0.0316 µM) 89.9% | viability, T/C (second compound 0.316 µM, first compound 0.1 µM) 51.2% | viability, T/C (second compound 1 µM, first compound 0.000316 µM) 126% | viability, T/C (second compound 1 µM, first compound 0.001 µM) 115% | viability, T/C (second compound 1 µM, first compound 0.00316 µM) 92.9% | viability, T/C (second compound 1 µM, first compound 0.01 µM) 111% | viability, T/C (second compound 1 µM, first compound 0.0316 µM) 79.9% | viability, T/C (second compound 1 µM, first compound 0.1 µM) 46.3% | viability, T/C (second compound 3.16 µM, first compound 0.000316 µM) 101% | viability, T/C (second compound 3.16 µM, first compound 0.001 µM) 92.9% | viability, T/C (second compound 3.16 µM, first compound 0.00316 µM) 112% | viability, T/C (second compound 3.16 µM, first compound 0.01 µM) 112% | viability, T/C (second compound 3.16 µM, first compound 0.0316 µM) 68.4% | viability, T/C (second compound 3.16 µM, first compound 0.1 µM) 54% | viability, T/C (second compound 10 µM, first compound 0.000316 µM) 97% | viability, T/C (second compound 10 µM, first compound 0.001 µM) 95.3% | viability, T/C (second compound 10 µM, first compound 0.00316 µM) 84.7% | viability, T/C (second compound 10 µM, first compound 0.01 µM) 84.5% | viability, T/C (second compound 10 µM, first compound 0.0316 µM) 101% | viability, T/C (second compound 10 µM, first compound 0.1 µM) 55.2%
> 100 nM: IC50 (curve of first compound, second compound 0.0316 µM) | IC50 (curve of first compound, second compound 0.1 µM) | IC50 (curve of first compound, second compound 0.316 µM) | IC50 (curve of first compound, second compound 3.16 µM) | IC50 (curve of first compound, second compound 10 µM)
91.8 nM: IC50 (curve of first compound, second compound 1 µM)

COc1cc(C2c3cc4c(cc3C(OC3OC5COC(C)OC5C(O)C3O)C3COC(=O)C23)OCO4)cc(OC)c1O (stereo unspecified)
inactive: viability, T/C (compound 0.0316 µM) 108% and 93.2% and 99.1% | viability, T/C (compound 0.1 µM) 103% and 85.7% and 106% | viability, T/C (compound 0.316 µM) 61.8% and 90.5% and 72.3% | viability, T/C (compound 1 µM) 49.7% and 44.2% and 35.8% | viability, T/C (compound 3.16 µM) 28.1% and 26.1% and 27.6% | viability, T/C (compound 10 µM) 31.2% and 30.3% and 30.4%
707 nM and 864 nM and 621 nM: IC50 (curve of compound)

CCc1c2c(nc3ccc(O)cc13)-c1cc3c(c(=O)n1C2)COC(=O)[C@]3(O)CC
21.9 nM and 16.3 nM and 20.1 nM: IC50 (curve of compound)
inactive: viability, T/C (compound 0.00316 µM) 59.3% and 81% and 86.5% | viability, T/C (compound 0.01 µM) 70.9% and 60% and 64% | viability, T/C (compound 0.0316 µM) 42.9% and 36.9% and 39.4% | viability, T/C (compound 0.1 µM) 31.1% and 30.2% and 33.9% | viability, T/C (compound 0.316 µM) 39.8% and 38.2% and 27.4% | viability, T/C (compound 1 µM) 35.2% and 33.7% and 25.6%
